Measured values from patent publication US9163256B2, “Mutant receptors and their use in a nuclear receptor-based inducible gene expression system” (priority 2004, dated 2015).
pEC50: −log10 of the molar value.

Columns and labels:
CfEcR-DEF mutant A110W = CfEcR-DEF mutant A110W (Choristoneura fumiferana, UniProt O77255, A393W); experiment: cell-based; conditions: mutant A110W; for pEC50: read-out: EC50
Procedure, shortened: (§1)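 Mutant CfEcR-DEF receptor and GAL4-driven luciferase reporter constructs transfected into mouse NIH3T3 cells with DMSO or ligand added; maintained 48 h at 37° C in 5% FBS, harvested 40 h after ligand addition. Dual-luciferase read-out; fold induction = RLU with ligand / RLU with DMSO.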

CfEcR-DEF mutant M125R = CfEcR-DEF mutant M125R (Choristoneura fumiferana, UniProt O77255, M408R); experiment: cell-based; conditions: mutant M125R; for pEC50: read-out: EC50
Procedure, shortened: as §1

CfEcR-DEF mutant F48N = CfEcR-DEF mutant F48N (Choristoneura fumiferana, UniProt O77255, F331N); experiment: GAL4-driven luciferase reporter assay in NIH3T3 cells; type: cell-based; conditions: mutant F48N; for pEC50: read-out: EC50
Description: (§2) This construct was prepared in the same way as in switch 1.1 above except wild-type CfEcR-DEF was replaced with mutant CfEcR-DEF comprising a ligand binding domain comprising a substitution mutation selected from Table 1 below.
(§3) DNAs were transfected into mouse NIH3T3 cells (ATCC) as follows. Standard methods for culture and maintenance of the cells were followed. Cells were harvested and plated 96-well plates at 2,500 cells per well, in 50 μL of growth medium containing 10% fetal bovine serum (FBS). Twenty-four hours later, the cells were treated with 35 μL of serum-free growth medium containing either dimethylsulfoxide (DMSO; control) or a DMSO solution of ligand. The cells were then transfected using Superfect (Qiagen Inc.) transfection reagent. For each well, 0.625 μL of Superfect was mixed with 14.2 μL of serum-free growth medium. 0.16 μg of reporter construct and 0.04 μg of each receptor construct were added to the transfection reagent mix. The contents of the transfection mix were mixed in a vortex mixer and let stand at room temperature for 30 minutes. At the end of incubation, 15 μL of transfection mix was added to the cells. The cells were maintained at 37° C. and 5% CO2 for 48 hours in 5% FBS.
(§4) Reporter Assays: Cells were harvested 40 hours after adding ligands. 125 μL of passive lysis buffer (part of Dual-Luciferase reporter assay system from Promega Corporation) were added to each well of the […] plate. The plates were placed on a rotary shaker for 15 minutes. Twenty μL of lysate were assayed. Luciferase activity was measured using Dual-Luciferase reporter assay system from Promega Corporation following the manufacturer's instructions. Fold induction (FI) activities were calculated by dividing relative light units (“RLU”) in ligand treated cells with RLU in DMSO treated cells (untreated control).

CfEcR-DEF mutant M125W = CfEcR-DEF mutant M125W (Choristoneura fumiferana, UniProt O77255, M408W); experiment: as above; type: cell-based; conditions: mutant M125W; for pEC50: read-out: EC50
Description: as §2, §3, §4

[1] = molecular target: CfEcR-DEF mutant T52V/A110P (Choristoneura fumiferana, UniProt O77255, A393P/T335V); experiment: as above; type: cell-based; conditions: mutant T52V/A110P; for pEC50: read-out: EC50; for Rel Max FI: relative to max fold induction of GS-E ligand
Description: as §2, §3, §4

[2] = molecular target: CfEcR-DEF mutant V107I/Y127E/T52V (Choristoneura fumiferana, UniProt O77255, T335V/V390I/Y410E); experiment: as above; type: cell-based; conditions: mutant V107I/Y127E/T52V; for pEC50: read-out: EC50; for Rel Max FI: relative to max fold induction of GS-E ligand
Description: as §2, §3, §4

[3] = molecular target: CfEcR-DEF mutant V107I/Y127E/G (Choristoneura fumiferana, UniProt O77255, INS541G/V390I/Y410E); experiment: as above; type: cell-based; conditions: mutant V107I/Y127E/G; for pEC50: read-out: EC50; for Rel Max FI: relative to max fold induction of GS-E ligand
Description: as §2
The Gal-4-CfEcR-DEF(VYG) mutant was created by inserting an extra glycine at the C-terminal end of EcR substitution mutant V107I/Y127E [CfECR(VY)] by PCR. Essentially, this was done in two steps: PCR-amplification of CfEcR-DEF(VYG) and substitution of the CfEcR(VY) in the vector GAL4-CfEcR DEF(VY) pBIND 1-9 with the PCR-amplified CfEcR-DEF(VYG). The CfEcR-DEF region (with the extra glycine) was amplified by using the vector GAL4-CfEcR DEF(VY) pBIND 1-9 as template and the following PCR primers: […]
as §3, §4

CfEcR-DEF mutant L132M = CfEcR-DEF mutant L132M (Choristoneura fumiferana, UniProt O77255, L415M); experiment: cell-based; type: cell-based; conditions: mutant L132M
Description: as §2, §3, §4

CfEcR-DEF mutant N119F = experiment: GAL4-driven luciferase reporter assay in NIH3T3 cells; type: cell-based, Choristoneura fumiferana
Description: as §2, §3, §4

[4] = relative to max fold induction of GS-E ligand

CfEcR-DEF mutant T52V/A110P, sequence (O77255 entry or part of it T335V/A393P): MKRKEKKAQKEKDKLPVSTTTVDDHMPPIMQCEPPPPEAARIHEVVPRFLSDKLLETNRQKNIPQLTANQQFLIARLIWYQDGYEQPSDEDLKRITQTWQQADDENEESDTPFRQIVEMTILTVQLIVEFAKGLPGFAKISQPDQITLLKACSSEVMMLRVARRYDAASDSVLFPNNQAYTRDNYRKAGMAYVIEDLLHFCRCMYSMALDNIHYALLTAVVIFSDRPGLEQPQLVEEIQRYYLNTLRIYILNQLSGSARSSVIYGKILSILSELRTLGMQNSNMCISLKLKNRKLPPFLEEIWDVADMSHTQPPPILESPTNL
CfEcR-DEF mutant T52V/A110P, sequence (P28702 299-449, stated change not applied, further chain): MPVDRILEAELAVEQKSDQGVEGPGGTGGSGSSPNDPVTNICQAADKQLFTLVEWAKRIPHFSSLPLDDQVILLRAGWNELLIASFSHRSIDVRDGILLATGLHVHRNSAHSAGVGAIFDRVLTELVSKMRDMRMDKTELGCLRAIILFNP
CfEcR-DEF mutant L132M, sequence (O77255 entry or part of it L415M): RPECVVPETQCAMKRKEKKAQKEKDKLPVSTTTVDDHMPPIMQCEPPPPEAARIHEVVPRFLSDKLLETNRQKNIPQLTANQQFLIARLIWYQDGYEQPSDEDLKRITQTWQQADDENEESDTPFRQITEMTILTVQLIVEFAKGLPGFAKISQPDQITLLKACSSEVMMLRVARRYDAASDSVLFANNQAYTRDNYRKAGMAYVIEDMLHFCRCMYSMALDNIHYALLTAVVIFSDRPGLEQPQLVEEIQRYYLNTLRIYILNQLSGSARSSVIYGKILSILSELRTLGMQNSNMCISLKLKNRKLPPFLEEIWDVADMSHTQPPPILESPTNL
CfEcR-DEF mutant L132M, sequence (P28702 298-449, further chain): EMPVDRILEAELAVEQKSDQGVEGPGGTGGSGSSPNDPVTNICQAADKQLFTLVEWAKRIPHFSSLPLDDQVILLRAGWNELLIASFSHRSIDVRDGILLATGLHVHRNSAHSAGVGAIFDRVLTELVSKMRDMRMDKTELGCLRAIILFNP
CfEcR-DEF mutant F48N, sequence (O77255 entry or part of it F331N): as the sequence (O77255 entry or part of it L415M) above, with F125N, M209L counted along it
CfEcR-DEF mutant F48N, sequence (P28702 299-449, further chain): as the sequence (P28702 299-449, stated change not applied, further chain) above
CfEcR-DEF mutant V107I/Y127E/T52V, sequence (P28702 299-449): as the sequence (P28702 299-449, stated change not applied, further chain) above
CfEcR-DEF mutant V107I/Y127E/T52V, sequence (O77255 entry or part of it T335V/V390I/Y410E): as the sequence (O77255 entry or part of it T335V/A393P) above, with V172I, P175A, Y192E counted along it
CfEcR-DEF mutant V107I/Y127E/G, sequence (P28702 299-449, stated change not applied): as the sequence (P28702 299-449, stated change not applied, further chain) above
CfEcR-DEF mutant V107I/Y127E/G, sequence (O77255 entry or part of it V390I/Y410E/INS541G): as the sequence (O77255 entry or part of it T335V/A393P) above, with V117T, P175A counted along it
CfEcR-DEF mutant A110W, sequence (P28702 299-449, stated change not applied): as the sequence (P28702 299-449, stated change not applied, further chain) above
CfEcR-DEF mutant A110W, sequence (O77255 entry or part of it A393W): as the sequence (O77255 entry or part of it L415M) above, with A187W, M209L counted along it
CfEcR-DEF mutant M125R, sequence (P28702 299-449): as the sequence (P28702 299-449, stated change not applied, further chain) above
CfEcR-DEF mutant M125R, sequence (O77255 entry or part of it M408R): as the sequence (O77255 entry or part of it T335V/A393P) above, with V117T, P175A, M190R counted along it
CfEcR-DEF mutant M125W, sequence (O77255 entry or part of it M408W): as the sequence (O77255 entry or part of it L415M) above, with M202W, M209L counted along it
CfEcR-DEF mutant M125W, sequence (P28702 299-449, further chain): as the sequence (P28702 299-449, stated change not applied, further chain) above

| Compound | Rel Max FI (CfEcR-DEF mutant A110W) | pEC50 (CfEcR-DEF mutant A110W) | Rel Max FI (CfEcR-DEF mutant M125R) | pEC50 (CfEcR-DEF mutant M125R) | Rel Max FI (CfEcR-DEF mutant F48N) | pEC50 (CfEcR-DEF mutant F48N) | Rel Max FI (CfEcR-DEF mutant M125W) | pEC50 (CfEcR-DEF mutant M125W) | pEC50 [1] | Rel Max FI [1] | pEC50 [2] | Rel Max FI [2] | pEC50 [3] | Rel Max FI [3] | Rel Max FI (CfEcR-DEF mutant L132M) | Rel Max FI (CfEcR-DEF mutant L132M; [4]) | other results |
| --- | --- | --- | --- | --- | --- | --- | --- | --- | --- | --- | --- | --- | --- | --- | --- | --- | --- |
| CC(C)(O)CC[C@@H](O)[C@](C)(O)[C@H]1CC[C@@]2(O)C3=CC(=O)[C@@H]4C[C@@H](O)[C@@H](O)C[C@]4(C)[C@H]3CC[C@]12C [20E, 20-hydroxyecdysone] | 0 | < 4.48 | 0.01 | < 4.48 | 0 | < 4.48 | 0 | < 4.48 | < 4.48 | 0 | < 4.48 | 0.04 | < 4.48 | 0.03 | 0.01 | 0 | pEC50 (CfEcR-DEF mutant L132M): < 4.48 |
| CC(C)CC[C@@H](O)[C@](C)(O)[C@H]1CC[C@@]2(O)C3=CC(=O)[C@@H]4C[C@@H](O)[C@@H](O)C[C@]4(C)[C@H]3CC[C@]12C [PonA, ponasterone A] | 0.01 | < 4.48 | 0 | ~5.10 | 0.17 | ~4.70 | 0 | < 4.48 | < 4.48 | 0 | ~6.00 | 0.67 | 5.78 | 0.67 | 0.01 | 0.57 | Fold increase over WT (CfEcR-DEF mutant N119F; 1.6 nM ligand): 1.33; Fold increase over WT (CfEcR-DEF mutant N119F; 8 nM ligand): 1.7; Fold increase over WT (CfEcR-DEF mutant N119F; 40 nM ligand): 9.42; Fold increase over WT (CfEcR-DEF mutant N119F; 200 nM ligand): 6.50; Fold increase over WT (CfEcR-DEF mutant N119F; 1 μM ligand): 3.00 |
